Read-outs that look alike come from different tables or passages of the source.

One experiment has as its target T1, CD73 (Homo sapiens, UniProt P21589).
T1 sequence (P21589 27-549): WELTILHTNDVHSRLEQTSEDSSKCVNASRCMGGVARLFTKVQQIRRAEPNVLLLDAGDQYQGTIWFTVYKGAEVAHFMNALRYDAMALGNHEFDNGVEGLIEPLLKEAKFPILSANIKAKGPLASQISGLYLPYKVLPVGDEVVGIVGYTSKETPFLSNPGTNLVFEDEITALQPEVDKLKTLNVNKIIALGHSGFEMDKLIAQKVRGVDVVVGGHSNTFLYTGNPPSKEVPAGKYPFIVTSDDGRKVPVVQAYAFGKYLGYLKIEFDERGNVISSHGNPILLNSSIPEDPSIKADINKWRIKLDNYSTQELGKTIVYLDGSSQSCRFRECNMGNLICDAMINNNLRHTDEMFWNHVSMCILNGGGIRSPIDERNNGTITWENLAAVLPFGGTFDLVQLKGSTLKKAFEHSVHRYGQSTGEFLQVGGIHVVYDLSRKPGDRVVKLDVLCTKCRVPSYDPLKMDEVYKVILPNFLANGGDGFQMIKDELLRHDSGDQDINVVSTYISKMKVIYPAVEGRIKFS
Nature of the experiment: Cell-free CD73 inhibition IC50 (nM). An excerpt:
Table printed on a drawing sheet, FIG. 24
Head of the field: Cell-free CD73 inhibition IC50 (nM)
Where the first naming reader finds the target: head: Cell-free CD73 inhibition IC50 (nM)

For experiment [1], the system named is human PBMCs inhibited by AMP. Nature of the experiment: PBMC activation assay by flow cytometry (rescue of AMP suppressed cells). It is filed as cell-based. As to the method: (§1) Human PBMCs (StemCell Technologies cat no. 70025) prepared in ImmunoCult™—XF T cell Expansion medium (StemCell Technologies cat no. 10981) were seeded at 1×10^5 cells per well (100 μL of 1×10^6 cells/mL) in the presence or absence of T cell activator anti-CD3/CD28/CD2 (StemCell Technologies cat no. 10970) in 96 well round bottom plates (Corning cat no. 3788). Ten-fold serial dilutions of each test article was prepared, resulting in final concentrations ranging from 0.1 nM-10,000 nM. 50 μL of test article was added to the cells, followed by 50 μL of adenosine 5′ monophosphate (AMP; MilliporeSigma cat no. A1752) for a final concentration of 30 μM. Plates were incubated at 37° C. with 5% CO2 for 72 h. After 72 h the cells were centrifuged for 5 min at 300×g at 4° C. then washed twice with cell staining buffer (BioLegend cat no. 420201). Cells were incubated with Fc block (Unlabeled, Clone: 3070; BD Biosciences cat no. 5642220) for 10 min at 4° C. Cells were stained with anti-human CD25 antibody, clone 2A3, PE (StemCell Technologies cat no. 60153PE) for 20 min at 4° C. protected from light. Cells were washed twice with cell staining buffer and resuspended in 200 μL of cell staining buffer. Samples were acquired using a Cytek Northern Lights flow cytometry system. CD25^+ by flow cytometry was used as the readout to measure PBMC activation after AMP inhibition. Samples were analyzed using FlowJo version 10. Percent rescue […] was plotted using GraphPad Prism Version 6 and EC50 values were generated using nonlinear regression analysis for total PBMCs or CD8^+ T cells using CD25^+ as read-out or granzyme B^+.
as §1, with “test article were prepared, resulting” for “test article was prepared, resulting”, “nonlinear regression analysis.” for “nonlinear regression analysis for total PBMCs or CD8^+ T cells using CD25^+ as read-out or granzyme B^+.”
Human PBMCs (StemCell Technologies cat no. 70025) prepared in ImmunoCult™—XF T cell Expansion medium (StemCell Technologies cat no. 10981) were seeded at 1×10^5 cells per well (100 μL of 1×10^6 cells/mL) in the presence or absence of T cell activator anti-CD3/CD28/CD2 (StemCell Technologies cat no. 10970) in 96 well round bottom plates (Corning cat no. 3788). Ten-fold serial dilutions of each test article was prepared in medium (ranging from 4,000 nM-0.4 nM), resulting in final concentrations ranging from 1,000 nM-0.1 nM. 50 μL of test article was added to the cells, followed by 50 μL of adenosine 5′ monophosphate (AMP; MilliporeSigma cat no. A1752) for a final concentration of 30 μM. […]

The target in a further experiment is T2, human CD73/NT5E protein (Homo sapiens, UniProt P21589).
T2 construct: purchased Acro Biosystems CD3-H52H7
T2 sequence (P21589 27-549): T1 sequence (P21589 27-549)
Nature of the experiment: Human CD73 binding by surface plasmon resonance. The conditions noted are these: SPR, Biacore 8k; DFCs and mAbs on His-captured CD73, small molecules on NTA-captured CD73 (Table 14).

The mark [2] stands for this setting: 30 μM AMP, 72 h, read-out: CD8+CD25+ EC50.
The mark [3] stands for this setting: 30 μM AMP, 72 h, read-out: CD8+granzyme B+ EC50.
Setting [4] is: read-out: 30 μM AMP EC50, CD25+ as a read-out, total PBMCs, 72 h.

Method for human CD73/NT5E protein: Kinetic binding of drug-Fc conjugates (DFCs) and comparator monoclonal antibodies (mAbs) to human CD73 by surface plasmon resonance (SPR) was performed by Acro Biosystems using the Biacore 8 k system (Cytiva). The anti-histidine antibody included in the His Capture Kit, type 2 (cat no. 29234602, Cytiva) was diluted to 50 μg/mL in immobilization buffer (10 mM sodium acetate, pH 4.5; cat no. 29234602, Cytiva) and immobilized at a flow rate of 10 μL/min for 420 s to 10,000 RU on a Series S Sensor Chip CM5 (cat no. 29149603, Cytiva). […] Sensorgrams were recorded by flowing 2-fold dilutions of analyte (DFC or mAb) in running buffer at concentrations ranging from 125 nM to 0.977 nM. Binding was measured at a flow rate of 30 μL/min, with a 90 s association phase and 120 s dissociation phase. […] Binding kinetics were analyzed using the data analysis software. […]
Binding of small molecule benchmark inhibitors to human CD73 by SPR was performed by Acro Biosystems using the Biacore 8 k system (Cytiva). […] Sensorgrams were recorded by flowing 2-fold dilutions of DFC analytes in running buffer at concentrations ranging from 15.625 nM to 0.977 nM. Binding was measured at a flow rate of 30 μL/min, with a 120 s association phase and 300 s dissociation phase. […] Binding kinetics were analyzed using the data analysis software. […]

For the compound `COC[C@](CO)(OC[C@H]1O[C@@H](n2ncc3c(NC4CCCC4)nc(Cl)nc32)[C@H](O)[C@@H]1O)P(=O)(O)O` [OP-5244], the IC50 against CD73 was determined as 2.25 nM. For the same compound, the EC50 in experiment [1] (setting [2]) stood at 5.9 nM; in experiment [1] (setting [3]), 1.4 nM; in experiment [1] (read-out: EC50 [nM] (median, n = 3) CD4+CD25+, 30 μM AMP, 72 h) it was 7 nM; in experiment [1] (read-out: EC50 [nM] (median, n = 3) CD8+CD25+, 30 μM AMP, 72 h) it was 7 nM; in experiment [1] (read-out: EC50 [nM] (median, n = 3) CD8+Granzyme B+, 30 μM AMP, 72 h), 8 nM. Also, binding at human CD73/NT5E protein was put at a Kd of 0.523 nM.
For the compound `O=P(O)(O)COC[C@H]1O[C@@H](n2ncc3c(N4CC5(CCc6ccccc65)C4)nc(Cl)nc32)[C@H](O)[C@@H]1O` [SHR170008], at CD73, half-maximal inhibition (IC50) was put at 16.1 nM. In addition, the results for the EC50 in experiment [1] (setting [2]), in experiment [1] (setting [3]) and in experiment [1] (setting [4]) were 598 nM, 212 nM and 374 nM, respectively. The compound further displayed a Kd on human CD73/NT5E protein of 3.34 nM.
Turning to `COC[C@](CO)(OC[C@H]1O[C@@H](n2ncc3c(NC4CCCC4)nc(Cl)nc32)[C@H](O)[C@@H]1O)P(=O)(O)O` [OP5244], the EC50 in experiment [1] (setting [4]) came to 8 nM; in experiment [1] (read-out: 30 μM AMP EC50, batches of Conjugate 172c, CD25+ as a read-out, 72 h (Table 13)), 17 nM.
Turning to `C[C@H](Nc1cc(Cl)nc2c1cnn2[C@@H]1O[C@H](COP(=O)(O)CP(=O)(O)O)[C@@H](O)[C@H]1O)c1ccccc1F` [AB680], the EC50 is 9 nM in experiment [1] (Homo sapiens, PBMC, read-out: 30 μM AMP EC50 [nM], CD25+ as a read-out, total PBMCs, 72 h); 10 nM in experiment [1] (Homo sapiens, PBMC, read-out: EC50 [nM] (median, n = 3) CD4+CD25+, 30 μM AMP, 72 h); 10 nM in experiment [1] (Homo sapiens, PBMC, read-out: EC50 [nM] (median, n = 3) CD8+CD25+, 30 μM AMP, 72 h); 47 nM in experiment [1] (Homo sapiens, PBMC, read-out: EC50 [nM] (median, n = 3) CD8+Granzyme B+, 30 μM AMP, 72 h); 10 to 54 nM in experiment [1] (Homo sapiens, PBMC, 30 μM AMP, 72 h, CD4+CD25+, CD8+CD25+, CD8+Granzyme B+, read-out: EC50 values (range over the read-outs)); 8.1 nM in experiment [1] (Homo sapiens, PBMC, 30 μM AMP, 72 h, read-out: CD8+CD25+ EC50). Moreover, in experiment [1] (Homo sapiens, PBMC, 30 μM AMP, 72 h, read-out: CD8+granzyme B+ EC50), the EC50 came to 1.4 nM.

The values above are taken from patent US20260000781A1, “FC CONJUGATES INCLUDING AN INHIBITOR OF CD73 AND USES THEREOF” (Cidara Therapeutics, Inc., priority 2022, published 2026).
